# Laboratory results taken from ChEMBL document CHEMBL5380836, “Design and Structural Optimization of Methionine Adenosyltransferase 2A (MAT2A) Inhibitors with High In Vivo Potency and Oral Bioavailability” (J Med Chem, 2023).
# The source made the active and inactive calls. No cut-off for these calls is given here.
# What was measured:
# HCT-116 [1] = test: Antiproliferative activity against human HCT-116 cells expressing MTAP-/- assessed as inhibition of cell proliferation incubated for 4 days by fluorescence based assay; assay type: functional; conditions: HCT-116, 96 h
# [2] = target: S-adenosylmethionine synthase isoform type-2 (Homo sapiens, UniProt P31153); test: Inhibition of recombinant MAT2A (unknown origin) expressed in baculovirus infected Sf9 insect cells using L-methionine as substrate preincubated for 15 mins followed by substrate addition measured after 60 mins by Kinase-Glo Luminescent assay
# S-adenosylmethionine synthase isoform type-2, sequence (P31153 whole entry, canonical isoform): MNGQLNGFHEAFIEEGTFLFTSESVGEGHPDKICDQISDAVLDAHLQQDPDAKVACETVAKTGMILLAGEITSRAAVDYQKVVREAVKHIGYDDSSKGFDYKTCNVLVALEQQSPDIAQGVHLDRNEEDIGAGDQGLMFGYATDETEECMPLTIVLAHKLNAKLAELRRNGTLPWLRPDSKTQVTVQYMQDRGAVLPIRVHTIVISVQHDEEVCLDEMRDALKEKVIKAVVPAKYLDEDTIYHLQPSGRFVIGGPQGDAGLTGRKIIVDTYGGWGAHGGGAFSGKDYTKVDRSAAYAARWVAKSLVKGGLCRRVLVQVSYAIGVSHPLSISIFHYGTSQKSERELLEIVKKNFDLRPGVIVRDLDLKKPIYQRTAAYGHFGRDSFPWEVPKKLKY
# HCT-116 [3] = test: Antiproliferative activity against human HCT-116 cells assessed as inhibition of cell proliferation incubated for 4 days by fluorescence based assay; assay type: functional; conditions: HCT-116, 96 h
# [4] = AUC in ICR mouse at 10 mg/kg, po via gavage measured for 0.083 to 24 hrs by LC-MS analysis; assay type: ADME, organism-based; set-up: dose 10 mg/kg, time upper 24 hrs, time lower 0.083 hrs, route po; conditions: in vivo
# [5] = Oral bioavailability in ICR mouse at 10 mg/kg administered via gavage measured for 0.083 to 24 hrs by LC-MS analysis; assay type: ADME, organism-based; conditions: in vivo, time 0.083-24 hrs
# [6] = Tmax in ICR mouse at 10 mg/kg, po via gavage measured for 0.083 to 24 hrs by LC-MS analysis; assay type: ADME, organism-based; conditions: in vivo, time 0.083-24 hrs
# [7] = Half life in ICR mouse at 10 mg/kg, po via gavage measured for 0.083 to 24 hrs by LC-MS analysis; assay type: ADME, organism-based; conditions: in vivo, time 0.083-24 hrs
# [8] = AUC in ICR mouse at 1 mg/kg, iv measured for 0.083 to 24 hrs by LC-MS analysis; assay type: ADME, organism-based; set-up: time upper 24 hrs, time lower 0.083 hrs, dose 1 mg/kg, route iv; conditions: in vivo
# [9] = Cmax in ICR mouse at 10 mg/kg, po via gavage measured for 0.083 to 24 hrs by LC-MS analysis; assay type: ADME, organism-based; set-up: time upper 24 hrs, dose 10 mg/kg, time lower 0.083 hrs, route po; conditions: in vivo
# [10] = Volume of distribution at steady state in ICR mouse at 1 mg/kg, iv measured for 0.083 to 24 hrs by LC-MS analysis; assay type: ADME, organism-based; conditions: in vivo, time 0.083-24 hrs, read-out: Vdss
# [11] = Half life in ICR mouse at 1 mg/kg, iv measured for 0.083 to 24 hrs by LC-MS analysis; assay type: ADME, organism-based; conditions: in vivo, time 0.083-24 hrs
# [12] = Clearance in ICR mouse at 1 mg/kg, iv measured for 0.083 to 24 hrs by LC-MS analysis; assay type: ADME, organism-based; conditions: in vivo, time 0.083-24 hrs
# HCT-116 [13] = test: Antitumor activity against human HCT-116 cells expressing MTAP-/- xenografted in BALB/c mouse assessed as tumor growth inhibition at 50 mg/kg, po qd measured for 18 days relative to control; assay type: functional; conditions: HCT-116, 432 h, time 18 day, read-out: TGI
# [14] = target: UDP-glucuronosyltransferases (UGTs); test: Inhibition of UGT (unknown origin) preincubated for 10 mins followed by substrates addition measured after 10 mins by LC-MS analysis; assay type: ADME, protein assay, Homo sapiens
# [15] = Intrinsic clearance in human liver microsomes at […] incubated for 5 to 60 mins in presence of NADPH by LC-MS analysis; assay type: ADME, Microsome; conditions: time 5-60 min
# [16] = target: Voltage-gated inwardly rectifying potassium channel KCNH2 (Homo sapiens, UniProt Q12809); test: Inhibition of hERG potassium ion channel expressed in CHO cells at -80 mV holding potential treated for 2.5 mins by Q patch-clamp method; assay type: toxicity, cell-based
# Voltage-gated inwardly rectifying potassium channel KCNH2, sequence (Q12809 whole entry): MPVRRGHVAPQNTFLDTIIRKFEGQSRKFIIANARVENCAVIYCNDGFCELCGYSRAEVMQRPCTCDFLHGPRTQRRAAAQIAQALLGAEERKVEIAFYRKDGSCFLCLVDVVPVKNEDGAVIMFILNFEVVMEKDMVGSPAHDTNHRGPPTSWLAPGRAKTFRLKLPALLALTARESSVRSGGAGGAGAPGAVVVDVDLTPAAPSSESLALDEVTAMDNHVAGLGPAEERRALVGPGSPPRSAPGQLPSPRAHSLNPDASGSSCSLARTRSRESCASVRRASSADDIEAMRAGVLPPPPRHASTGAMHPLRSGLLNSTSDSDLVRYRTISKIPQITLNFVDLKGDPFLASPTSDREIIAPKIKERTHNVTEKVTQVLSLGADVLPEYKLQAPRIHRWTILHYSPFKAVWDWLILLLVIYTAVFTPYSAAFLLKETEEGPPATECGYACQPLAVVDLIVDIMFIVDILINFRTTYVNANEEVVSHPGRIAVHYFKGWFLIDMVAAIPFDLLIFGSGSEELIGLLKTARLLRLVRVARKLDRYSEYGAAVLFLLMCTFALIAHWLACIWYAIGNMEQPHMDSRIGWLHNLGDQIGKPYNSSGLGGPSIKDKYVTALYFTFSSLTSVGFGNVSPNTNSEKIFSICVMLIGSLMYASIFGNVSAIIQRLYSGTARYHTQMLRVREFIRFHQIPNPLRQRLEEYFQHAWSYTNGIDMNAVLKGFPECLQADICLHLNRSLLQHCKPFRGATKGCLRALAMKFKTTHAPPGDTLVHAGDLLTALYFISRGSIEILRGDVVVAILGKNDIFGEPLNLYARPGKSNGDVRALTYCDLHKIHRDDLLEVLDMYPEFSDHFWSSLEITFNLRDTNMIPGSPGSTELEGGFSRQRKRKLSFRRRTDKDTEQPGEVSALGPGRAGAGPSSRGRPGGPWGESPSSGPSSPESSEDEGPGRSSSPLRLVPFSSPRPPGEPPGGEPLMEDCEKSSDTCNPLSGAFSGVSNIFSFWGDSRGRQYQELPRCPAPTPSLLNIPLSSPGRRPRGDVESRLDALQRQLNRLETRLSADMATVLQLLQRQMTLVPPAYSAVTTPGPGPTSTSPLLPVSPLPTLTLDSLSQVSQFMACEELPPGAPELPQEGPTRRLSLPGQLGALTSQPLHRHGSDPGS
# [17] = Efflux ratio of apparent permeability from basolateral to apical side over apical to basolateral side in MDCKII-MDR1 cells at 2 uM incubated for 2.5 hrs by LC-MS/MS analysis; assay type: ADME, cell-based, Canis lupus familiaris; conditions: dog, MDCK-MDR1
# Cytochrome P450 2C19 = Cytochrome P450 2C19 (Homo sapiens, UniProt P33261); test: Inhibition of CYP2C19 in human liver microsomes using S-mephenytoin as substrate preincubated for 10 mins followed by substrate addition measured after 10 mins in presence of NADPH by LC-MS analysis; assay type: ADME, Microsome
# Cytochrome P450 2C19, sequence (P33261 whole entry): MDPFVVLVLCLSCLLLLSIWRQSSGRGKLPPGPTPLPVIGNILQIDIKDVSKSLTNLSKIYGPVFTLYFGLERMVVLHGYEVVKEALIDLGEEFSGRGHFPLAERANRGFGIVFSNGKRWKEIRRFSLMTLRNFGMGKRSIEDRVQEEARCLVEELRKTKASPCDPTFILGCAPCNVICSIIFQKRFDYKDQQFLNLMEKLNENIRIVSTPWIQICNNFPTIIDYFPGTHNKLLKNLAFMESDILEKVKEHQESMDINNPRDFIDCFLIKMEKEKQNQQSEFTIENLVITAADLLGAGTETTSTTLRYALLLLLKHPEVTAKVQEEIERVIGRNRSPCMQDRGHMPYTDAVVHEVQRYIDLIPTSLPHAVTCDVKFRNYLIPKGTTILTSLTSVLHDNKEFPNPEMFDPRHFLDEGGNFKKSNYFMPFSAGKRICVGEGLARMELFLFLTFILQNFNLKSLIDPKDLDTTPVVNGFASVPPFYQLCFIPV
# Cytochrome P450 3A4 = Cytochrome P450 3A4 (Homo sapiens, UniProt P08684); test: Inhibition of CYP3A4 in human liver microsomes using midazolam as substrate preincubated for 10 mins followed by substrate addition measured after 10 mins in presence of NADPH by LC-MS analysis; assay type: ADME, Microsome
# Cytochrome P450 3A4, sequence (P08684 whole entry): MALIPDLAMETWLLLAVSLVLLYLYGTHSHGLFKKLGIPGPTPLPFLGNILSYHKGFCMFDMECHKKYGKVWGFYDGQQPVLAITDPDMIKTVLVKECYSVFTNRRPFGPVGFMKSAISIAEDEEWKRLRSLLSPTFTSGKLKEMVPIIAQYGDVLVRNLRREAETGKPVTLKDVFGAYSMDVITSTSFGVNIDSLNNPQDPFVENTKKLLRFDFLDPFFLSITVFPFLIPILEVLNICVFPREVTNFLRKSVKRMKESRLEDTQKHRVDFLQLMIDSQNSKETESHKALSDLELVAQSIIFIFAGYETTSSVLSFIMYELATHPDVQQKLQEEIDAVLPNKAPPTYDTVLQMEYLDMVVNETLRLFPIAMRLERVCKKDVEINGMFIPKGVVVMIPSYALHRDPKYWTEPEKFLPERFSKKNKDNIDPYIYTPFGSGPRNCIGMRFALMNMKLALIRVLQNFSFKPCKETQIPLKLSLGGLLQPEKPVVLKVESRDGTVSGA
# Cytochrome P450 2D6 = Cytochrome P450 2D6 (Homo sapiens, UniProt P10635); test: Inhibition of CYP2D6 in human liver microsomes using dextromethorphan as substrate preincubated for 10 mins followed by substrate addition measured after 10 mins in presence of NADPH by LC-MS analysis; assay type: ADME, Microsome
# Cytochrome P450 2D6, sequence (P10635 whole entry): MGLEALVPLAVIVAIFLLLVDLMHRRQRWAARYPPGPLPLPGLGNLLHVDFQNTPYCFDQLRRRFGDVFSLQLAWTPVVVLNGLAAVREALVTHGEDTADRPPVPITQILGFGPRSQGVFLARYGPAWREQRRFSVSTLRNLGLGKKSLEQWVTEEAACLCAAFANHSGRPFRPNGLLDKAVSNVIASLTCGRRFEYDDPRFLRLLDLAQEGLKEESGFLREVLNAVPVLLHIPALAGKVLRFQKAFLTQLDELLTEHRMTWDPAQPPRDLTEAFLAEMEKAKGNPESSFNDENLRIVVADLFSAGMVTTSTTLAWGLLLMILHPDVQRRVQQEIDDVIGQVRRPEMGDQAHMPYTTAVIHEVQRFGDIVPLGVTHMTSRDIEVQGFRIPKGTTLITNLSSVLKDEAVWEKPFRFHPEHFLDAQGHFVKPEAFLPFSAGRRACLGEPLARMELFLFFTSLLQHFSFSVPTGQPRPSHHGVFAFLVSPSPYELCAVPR
# Cytochrome P450 2C9 = Cytochrome P450 2C9 (Homo sapiens, UniProt P11712); test: Inhibition of CYP2C9 in human liver microsomes using diclofenac as substrate preincubated for 10 mins followed by substrate addition measured after 10 mins in presence of NADPH by LC-MS analysis; assay type: ADME, Microsome
# Cytochrome P450 2C9, sequence (P11712 whole entry): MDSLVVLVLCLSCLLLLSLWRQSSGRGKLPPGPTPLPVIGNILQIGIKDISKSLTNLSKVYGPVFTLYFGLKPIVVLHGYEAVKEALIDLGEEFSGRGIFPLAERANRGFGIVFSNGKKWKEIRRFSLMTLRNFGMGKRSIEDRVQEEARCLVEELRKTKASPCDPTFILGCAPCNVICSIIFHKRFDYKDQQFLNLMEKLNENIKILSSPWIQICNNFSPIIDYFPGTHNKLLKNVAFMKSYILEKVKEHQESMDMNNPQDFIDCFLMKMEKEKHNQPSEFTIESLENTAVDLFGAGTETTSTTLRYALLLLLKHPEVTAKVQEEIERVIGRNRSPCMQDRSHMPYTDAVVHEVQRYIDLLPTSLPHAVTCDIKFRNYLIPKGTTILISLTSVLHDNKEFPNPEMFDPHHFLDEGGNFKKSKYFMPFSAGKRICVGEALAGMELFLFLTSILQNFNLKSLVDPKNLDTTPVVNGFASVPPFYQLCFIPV
# [18] = MRT in ICR mouse at 10 mg/kg, po via gavage measured for 0.083 to 24 hrs by LC-MS analysis; assay type: ADME, organism-based; conditions: in vivo, time 0.083-24 hrs
# [19] = Toxicity in BALB/c mouse xenografted with human HCT-116 cells expressing MTAP-/- assessed as drug tolerance at 50 mg/kg, po qd measured for 18 days; assay type: organism-based; conditions: in vivo, 432 h, time 18 day
# HCT-116 [20] = test: Antitumor activity against human HCT-116 cells expressing MTAP-/- xenografted in BALB/c mouse assessed as decrease in tumor volume at 50 mg/kg, po qd measured after 6 days; assay type: functional, organism-based; conditions: time 6.0 day
# Cytochrome P450 1A2 = target: T1, Cytochrome P450 1A2 (Homo sapiens, UniProt P05177); test: Inhibition of CYP1A2 in human liver microsomes using phenacetin as substrate preincubated for 10 mins followed by substrate addition measured after 10 mins in presence of NADPH by LC-MS analysis; assay type: ADME, Microsome
# T1 sequence (P05177 whole entry): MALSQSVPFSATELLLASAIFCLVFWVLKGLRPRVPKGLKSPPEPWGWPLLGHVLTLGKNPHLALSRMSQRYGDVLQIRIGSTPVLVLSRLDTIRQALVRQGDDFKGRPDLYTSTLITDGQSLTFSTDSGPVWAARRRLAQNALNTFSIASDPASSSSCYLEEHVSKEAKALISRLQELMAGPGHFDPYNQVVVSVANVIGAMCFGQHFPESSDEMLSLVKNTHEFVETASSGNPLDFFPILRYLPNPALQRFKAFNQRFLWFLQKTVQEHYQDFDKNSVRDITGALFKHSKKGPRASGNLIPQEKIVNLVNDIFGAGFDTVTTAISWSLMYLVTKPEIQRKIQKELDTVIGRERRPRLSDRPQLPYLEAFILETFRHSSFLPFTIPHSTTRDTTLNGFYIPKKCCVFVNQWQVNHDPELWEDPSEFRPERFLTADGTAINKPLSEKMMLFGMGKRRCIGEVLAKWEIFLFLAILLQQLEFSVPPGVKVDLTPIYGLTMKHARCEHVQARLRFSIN
# HCT-116 [21] = test: Antitumor activity against human HCT-116 cells expressing MTAP-/- xenografted in BALB/c mouse assessed as tumor regression at 50 mg/kg, po qd measured after 18 days relative to control; assay type: functional; conditions: time 18 day
# [22] = Toxicity in BALB/c mouse xenografted with human HCT-116 cells expressing MTAP-/- assessed as body weight loss at 50 mg/kg, po qd measured for 18 days relative to control; assay type: organism-based; conditions: in vivo, 432 h, time 18 day
# [23] = Apparent permeability of the compound across apical to basolateral side in MDCKII-MDR1 cells at 2 uM incubated for 2.5 hrs by LC-MS/MS analysis; assay type: ADME, cell-based, Canis lupus familiaris; conditions: dog, MDCK-MDR1
Compound,IC50 (HCT-116 [1]),IC50 [2],further results
CN1CCn2c(nc3ccc(-c4cc5cnc(OCC(F)F)nc5n(-c5ccc(OC(F)F)cc5)c4=O)cc32)C1,159 nM,37 nM,–
CC(C)Oc1ncc2cc(-c3ccc4nc5n(c4c3)CCN(C)C5)c(=O)n(-c3ccc(OC(F)F)cc3)c2n1,84 nM,27 nM,–
CCOc1ncc2cc(-c3cc4c5c(c3)ncn5CCO4)c(=O)n(-c3ccc(OC(F)F)cc3)c2n1,447 nM,72 nM,–
CCOc1ccc2c(=O)n(-c3ccc4nn5c(c4c3)CN(C)CC5)c(=O)n(-c3ccc(OC(F)F)cc3)c2n1,82 nM,28 nM,IC50 (HCT-116 [3]): > 10000 nM
COc1ncc2cc(-c3ccc4nc5n(c4c3)CCN(C)C5)c(=O)n(-c3ccc(OC(F)F)cc3)c2n1,484 nM,64 nM,–
CN1CCn2c(nc3ccc(-c4cc5cnc(NCC(F)(F)F)nc5n(-c5ccc(OC(F)F)cc5)c4=O)cc32)C1,166 nM,34 nM,–
CN1CCn2c(nc3ccc(-c4cc5cnc(N6CCCC6)nc5n(-c5ccc(OC(F)F)cc5)c4=O)cc32)C1,> 10000 nM,> 1000 nM,–
CCOc1ncc2cc(-c3ccc4nc5n(c4c3)CCN(C)C5)c(=O)n(-c3ccc(OC(F)F)cc3)c2n1,52 nM,18 nM,AUC [4]: 11500 ng·h/mL; bioavailability [5]: 116%; Tmax [6]: 0.83 h; half-life [7]: 3.3 h; AUC [8]: 990 ng·h/mL; Cmax [9]: 2300 ng/mL; Vd [10]: 2.18 L/kg; half-life [11]: 2.4 h; clearance [12]: 17.1 mL/min/kg
Cn1cc2cc(-n3cc4cnc(NCC(F)(F)F)nc4c(-c4ccc(Cl)cc4)c3=O)ccc2n1,145 nM,32 nM,–
CCOc1ncc2cc(-c3ccc4c(c3)nc3n4CCN(C)C3)c(=O)n(-c3ccc(OC(F)F)cc3)c2n1,3110 nM,394 nM,–
COc1ccc(-c2c(Nc3ccccn3)[nH]c3c(C4=CCCCC4)c(-c4ccccc4)nn3c2=O)cc1,244 nM,–,inhibition in vivo at 50 mg/kg (HCT-116 [13]): 34%
CCOc1ncc2cc(-c3ccc4nc5n(c4c3)CCN(C(C)=O)C5)c(=O)n(-c3ccc(OC(F)F)cc3)c2n1,118 nM,52 nM,–
CCOc1ncc2cc(-c3ccc4nc5n(c4c3)CCN(C)C5)c(=O)n(-c3ccc(OC)nc3)c2n1,792 nM,132 nM,–
CCOc1ncc2cc(-c3ccc4nc5n(c4c3)CCN(CC#N)C5)c(=O)n(-c3ccc(OC(F)F)cc3)c2n1,56 nM,20 nM,–
CCOc1ncc2cc(-c3ccc4nc5n(c4c3)CCN(CC3COC3)C5)c(=O)n(-c3ccc(OC(F)F)cc3)c2n1,67 nM,23 nM,–
CCOc1ccc2cc(-c3ccc4c(c3)C3(CC3)CO4)c(=O)n(-c3ccc(OC(F)F)cc3)c2c1,315 nM,63 nM,–
CCOc1ncc2cc(-c3ccc4c(c3)OCC3(CCN(C)CC3)O4)c(=O)n(-c3ccc(OC(F)F)cc3)c2n1,> 10000 nM,> 1000 nM,–
CCOc1ccc2cc(-c3ccc4nn(C)cc4c3)c(=O)n(-c3ccc(OC(F)F)cc3)c2c1,355 nM,34 nM,–
CN1CCn2c(nc3ccc(-c4cc5cnc(C6CC6)nc5n(-c5ccc(OC(F)F)cc5)c4=O)cc32)C1,34 nM,14 nM,AUC [4]: 11400 ng·h/mL; Tmax [6]: 0.5 h; half-life [7]: 4 h; Cmax [9]: 1740 ng/mL
CCOc1ncc2c(n1)n(-c1ccc(OC(F)F)cc1)c(=O)n2Cc1ccc2nn(C)cc2c1,> 10000 nM,> 1000 nM,–
CCOc1ncc2cc(-c3ccc4nc5n(c4c3)CCN(C)C5)c(=O)n(-c3ccc(Cl)cc3)c2n1,119 nM,51 nM,–
CN1CCn2c(nc3ccc(-c4cc5cnc(N6CCC6)nc5n(-c5ccc(OC(F)F)cc5)c4=O)cc32)C1,6120 nM,324 nM,–
CCOc1ncc2cc(-c3ccc4nn5c(c4c3)C(=O)N(C)CC5)c(=O)n(-c3ccc(OC(F)F)cc3)c2n1,80 nM,23 nM,–
CCOc1ncc2cc(-c3ccc4nn5c(c4c3)CN(C)CC5)c(=O)n(-c3ccc(OC(F)F)cc3)c2n1,56 nM,20 nM,–
CCOc1ccc2c(=O)n(-c3ccc4nc5n(c4c3)CCN(C)C5)c(=O)n(-c3ccc(OC(F)F)cc3)c2n1,75 nM,26 nM,"IC50 [14]: > 50000 nM; CLint [15]: 20.1 µL/min/mg; AUC [4]: 41200 ng·h/mL; IC50 [16]: > 50000 nM; efflux ratio at 2.5 h, 2 µM [17]: 8; IC50 (Cytochrome P450 2C19): 29000 nM; Tmax [6]: 0.67 h; IC50 (Cytochrome P450 3A4): 36900 nM; IC50 (Cytochrome P450 2D6): > 50000 nM; half-life [7]: 2.98 h; Cmax [9]: 6730 ng/mL; IC50 (Cytochrome P450 2C9): 39200 nM; MRT [18]: 4.71 h; Activity [19]: Non-Toxic; Activity (HCT-116 [20]): Active; IC50 (Cytochrome P450 1A2): > 50000 nM; IC50 (HCT-116 [3]): > 10000 nM; Activity (HCT-116 [21]): -52%; Activity [22]: 12%; Papp A→B at 2.5 h, 2 µM [23]: 2.9 ×10⁻⁶ cm/s"
CCNc1ncc2cc(-c3ccc4nc5n(c4c3)CCN(C)C5)c(=O)n(-c3ccc(OC(F)F)cc3)c2n1,42 nM,14 nM,AUC [4]: 3200 ng·h/mL; Tmax [6]: 0.33 h; half-life [7]: 2.9 h; Cmax [9]: 1050 ng/mL
CCOc1ncc2cc(-c3ccc4nc5n(c4c3)CCN(CCOC)C5)c(=O)n(-c3ccc(OC(F)F)cc3)c2n1,50 nM,17 nM,–
CCOc1ncc2cc(-c3ccc4ncn5c4c3OCC5)c(=O)n(-c3ccc(OC(F)F)cc3)c2n1,> 10000 nM,> 1000 nM,–
CCOc1ncc2cc(-c3ccc4nc5n(c4c3)CCN(C(C)C)C5)c(=O)n(-c3ccc(OC(F)F)cc3)c2n1,53 nM,17 nM,–
CCOc1ncc2nc(-c3ccc4nn(C)cc4c3)c(=O)n(-c3ccc(OC(F)F)cc3)c2n1,387 nM,39 nM,–
